# According to patent US12655153B2, “Solid forms of a HBV core protein allosteric modifier” (Hoffmann-La Roche Inc., priority 2019, dated 2026):
# Entries after “also recorded” stand apart in the source; their conditions may differ.
# What was measured:
# [1] = Apparent solubility study in pH buffers (50 mM), 25° C., 24 hours, HPLC; type: physicochemical; conditions: for Final pH: after 24 hours; for Solubility: 25° C.; for Solubility compared with Form A: pH7 and pH9
# Experimental: Apparent solubility was determined by suspending 5 mg of compound (I) in different bio-relevant media including pH buffers (50 mM). The suspensions were equilibrated at 25° C. for 24 hours. The suspensions were then filtered through a 0.22 μm PVDF filter into a 2-mL HPLC vial. The quantification of the filtrate was conducted by HPLC with reference to a standard solution.
# [2] = Apparent solubility in purified water, 25° C., 24 hours, HPLC, residue by XRPD; type: physicochemical; conditions: for Solubility / Final pH / XRPD of residue: purified water; for Solubility: 25° C., 24 hours; for Final pH / XRPD of residue: after 24 hours
# Experimental: Apparent solubility in water was determined by suspending 5 mg of compound (I) in purified water. The suspensions were equilibrated at 25° C. for 24 hours. The suspensions were then filtered through a 0.22 μm PVDF filter into a 2-mL HPLC vial. The quantitation of the filtrate was conducted by HPLC with reference to a standard solution. The solids were analyzed by XRPD.
# [3] = Physical stability of solid forms (general statements, accelerated and long term stability testing); type: physicochemical; conditions: conditions not stated
# Description: Developing novel forms of compound (I) with good processability or acceptable aqueous solubility is one of the objectives of current invention. Some novel solid forms enhance the developability of compound (I) fundamentally. The physical stability of drug substances is an integral part of the systematic approach to the stability evaluation of pharmaceuticals due to its potential impacts on drug chemical stability performance and safety. The greater the stability is, the longer the shelf life could be. Therefore, the accelerated and long term stability testing used in this invention could be used to predict shelf lives.
# [4] = Stability of solid forms, stability chamber 25° C. and 60%-RH, XRPD after 1 month; type: physicochemical; conditions: 25° C./60%-RH
# Experimental: 20 mg of compound (I) in different solid forms were stored in a stability chamber with temperature and humidity controlled at 25° C. and 60%-RH. After 1 month, the samples were analyzed by XRPD to check their solid form and compared with their initial solid form.
# [5] = Stability of solid forms, stability chamber 40° C. and 75%-RH, XRPD after 1 month; type: physicochemical; conditions: 40° C./75%-RH
# Experimental: 40 mg of compound (I) in different solid forms were stored in a stability chamber with temperature and humidity controlled at 40° C. and 75%-RH, respectively. After 1 month, the samples were analyzed by XRPD to check their solid form and compared with their initial solid form.
# [6] = Apparent solubility in FaSSIF over time; type: physicochemical
# Description: (§1) Therefore, sodium salt Form J is suitable to be formulated as sustained-release oral formulation. […] Therefore, sodium salt Form J could be developed as enteric release formulations to avoid conversion in SGF and achieve higher solubility in intestinal environment for better absorption.
# [7] = Conversion of solid form in SGF; type: physicochemical
# Description: as §1
# [8] = In vivo PK study
# Description: as §1
# [9] = listed as Example 3, Form A of compound (I)
# [10] = listed as Example 1, Form D of compound (I)
# [11] = listed as Example 16, Form H of compound (I)
smiles,measurement,setting,value
"CCOC(=O)C1=C(CN2CCN3C(=O)N(CC(C)(C)C(=O)O)C[C@@H]3C2)NC(c2nccs2)=N[C@H]1c1cccc(F)c1C [Form A, 3-[(8aS)-7-[[(4S)-5-ethoxycarbonyl-4-(3-fluoro-2-methyl-phenyl)-2-thiazol-2-yl-1,4-dihydropyrimidin-6-yl]methyl]-3-oxo-5,6,8,8a-tetrahydro-1H-imidazo[1,5-a]pyrazin-2-yl]-2,2-dimethyl-propanoic acid]",solubility at 24 h,"[1]; pH 1 buffer (50 mM), 25 °C, pH 1, aqueous buffer, thermodynamic from solid, pH 1 buffer, 24 hours",940 µg/mL
same,Final pH,"[1]; pH 1 buffer, listed as Example 3, Form A of compound (I)",1.05
same,Solubility,"[1]; pH 3 buffer, 24 hours, listed as Example 3, Form A of compound (I)",66 µg/mL
same,Final pH,"[1]; pH 3 buffer, listed as Example 3, Form A of compound (I)",2.97
same,Solubility,"[1]; pH 5 buffer, 24 hours, listed as Example 3, Form A of compound (I)",4 µg/mL
same,Final pH,"[1]; pH 5 buffer, listed as Example 3, Form A of compound (I)",4.99
same,Solubility,"[1]; pH 7 buffer, 24 hours, listed as Example 3, Form A of compound (I)",72 µg/mL
same,Final pH,"[1]; pH 7 buffer, listed as Example 3, Form A of compound (I)",6.98
same,Solubility,"[1]; pH 9 buffer, 24 hours, listed as Example 3, Form A of compound (I)",4820 µg/mL
same,Final pH,"[1]; pH 9 buffer, listed as Example 3, Form A of compound (I)",8.46
same,Solubility,[2]; [9],50 µg/mL
same,Final pH,[2]; [9],6.97
same,XRPD of residue,[2]; [9],Form A
"CCOC(=O)C1=C(CN2CCN3C(=O)N(CC(C)(C)C(=O)O)C[C@@H]3C2)NC(c2nccs2)=N[C@H]1c1cccc(F)c1C [Form Amorphous, 3-[(8aS)-7-[[(4S)-5-ethoxycarbonyl-4-(3-fluoro-2-methyl-phenyl)-2-thiazol-2-yl-1,4-dihydropyrimidin-6-yl]methyl]-3-oxo-5,6,8,8a-tetrahydro-1H-imidazo[1,5-a]pyrazin-2-yl]-2,2-dimethyl-propanoic acid]",Physical / solid state stability,[3],significantly improved stability compared with Form D
"CCOC(=O)C1=C(CN2CCN3C(=O)N(CC(C)(C)C(=O)O)C[C@@H]3C2)NC(c2nccs2)=N[C@H]1c1cccc(F)c1C [Form D, 3-[(8aS)-7-[[(4S)-5-ethoxycarbonyl-4-(3-fluoro-2-methyl-phenyl)-2-thiazol-2-yl-1,4-dihydropyrimidin-6-yl]methyl]-3-oxo-5,6,8,8a-tetrahydro-1H-imidazo[1,5-a]pyrazin-2-yl]-2,2-dimethyl-propanoic acid]",Physical / solid state stability,[3],physically unstable
same,Physical stability (solid form by XRPD),[4]; [10],solid form change
same,Solid form stability compared with Form D,[5],better solid form stability than the original Form D
same,Physical stability (solid form by XRPD),[5]; [10],solid form change
"CCOC(=O)C1=C(CN2CCN3C(=O)N(CC(C)(C)C(=O)O)C[C@@H]3C2)NC(c2nccs2)=N[C@H]1c1cccc(F)c1C [Form H, 3-[(8aS)-7-[[(4S)-5-ethoxycarbonyl-4-(3-fluoro-2-methyl-phenyl)-2-thiazol-2-yl-1,4-dihydropyrimidin-6-yl]methyl]-3-oxo-5,6,8,8a-tetrahydro-1H-imidazo[1,5-a]pyrazin-2-yl]-2,2-dimethyl-propanoic acid]",Solubility,"[1]; pH 1 buffer, 24 hours, listed as Example 16, Form H of compound (I)",1581 µg/mL
same,Final pH,"[1]; pH 1 buffer, listed as Example 16, Form H of compound (I)",1.08
same,Solubility,"[1]; pH 3 buffer, 24 hours, listed as Example 16, Form H of compound (I)",56 µg/mL
same,Final pH,"[1]; pH 3 buffer, listed as Example 16, Form H of compound (I)",3.01
same,Solubility,"[1]; pH 5 buffer, 24 hours, listed as Example 16, Form H of compound (I)",6 µg/mL
same,Final pH,"[1]; pH 5 buffer, listed as Example 16, Form H of compound (I)",5.03
same,Solubility compared with Form A,[1],higher solubility than Form A at pH7 and pH9
same,Solubility,"[1]; pH 7 buffer, 24 hours, listed as Example 16, Form H of compound (I)",244 µg/mL
same,Final pH,"[1]; pH 7 buffer, listed as Example 16, Form H of compound (I)",6.97
same,Solubility,"[1]; pH 9 buffer, 24 hours, listed as Example 16, Form H of compound (I)",>10000 µg/mL
same,Final pH,"[1]; pH 9 buffer, listed as Example 16, Form H of compound (I)",8.90
same,Physical / solid state stability,[3],improved stability compared with Form D; also recorded: acceptable solid state stability
same,Stability compared with Form D,[4],better stability than the original Form D
same,Physical stability (solid form by XRPD),[4]; [11],no solid form change
same,Solubility,[2]; [11],453 µg/mL
same,Final pH,[2]; [11],7.35
same,XRPD of residue,[2]; [11],Form H
same,Water solubility compared with Form A,[2]; water,unexpected higher water solubility than Form A; also recorded: significant higher water solubility than the anhydrate Form A
"CCOC(=O)C1=C(CN2CCN3C(=O)N(CC(C)(C)C(=O)O)C[C@@H]3C2)NC(c2nccs2)=N[C@H]1c1cccc(F)c1C [Form J, 3-[(8aS)-7-[[(4S)-5-ethoxycarbonyl-4-(3-fluoro-2-methyl-phenyl)-2-thiazol-2-yl-1,4-dihydropyrimidin-6-yl]methyl]-3-oxo-5,6,8,8a-tetrahydro-1H-imidazo[1,5-a]pyrazin-2-yl]-2,2-dimethyl-propanoic acid]",Solubility compared with other crystal forms of the parent compound (I),[1],improved solubility compared with some of other crystal forms
same,Solubility,"[1]; pH 1 buffer, 24 hours, listed as Example 15, sodium salt Form J of compound (I)",1510 µg/mL
same,Final pH,"[1]; pH 1 buffer, listed as Example 15, sodium salt Form J of compound (I)",1.12
same,Solubility,"[1]; pH 3 buffer, 24 hours, listed as Example 15, sodium salt Form J of compound (I)",16 µg/mL
same,Final pH,"[1]; pH 3 buffer, listed as Example 15, sodium salt Form J of compound (I)",3.53
same,Solubility,"[1]; pH 5 buffer, 24 hours, listed as Example 15, sodium salt Form J of compound (I)",2.8 µg/mL
same,Final pH,"[1]; pH 5 buffer, listed as Example 15, sodium salt Form J of compound (I)",5.22
same,Solubility compared with Form A,[1],higher solubility than Form A at pH7 and pH9
same,Solubility,"[1]; pH 7 buffer, 24 hours, listed as Example 15, sodium salt Form J of compound (I)",690 µg/mL
same,Final pH,"[1]; pH 7 buffer, listed as Example 15, sodium salt Form J of compound (I)",7.34
same,Solubility,"[1]; pH 9 buffer, 24 hours, listed as Example 15, sodium salt Form J of compound (I)",>10000 µg/mL
same,Final pH,"[1]; pH 9 buffer, listed as Example 15, sodium salt Form J of compound (I)",8.80
same,Apparent solubility in FaSSIF,[6],increased with time
same,Physical / solid state stability,[3]; listed as sodium salt Form J,improved stability compared with Form D
same,Solid form conversion,[7],converted to HCl salt immediately
same,Absorption rate to reach Cmax,[8],much slower absorption rate to reach Cmax
same,Solid form stability compared with Form D,[5],better solid form stability than the original Form D
same,Physical stability (solid form by XRPD),"[5]; listed as Example 15, sodium salt Form J of compound (I)",no solid form change
"CCOC(=O)C1=C(CN2CCN3C(=O)N(CC(C)(C)C(=O)O)C[C@@H]3C2)NC(c2nccs2)=N[C@H]1c1cccc(F)c1C [Form Q, 3-[(8aS)-7-[[(4S)-5-ethoxycarbonyl-4-(3-fluoro-2-methyl-phenyl)-2-thiazol-2-yl-1,4-dihydropyrimidin-6-yl]methyl]-3-oxo-5,6,8,8a-tetrahydro-1H-imidazo[1,5-a]pyrazin-2-yl]-2,2-dimethyl-propanoic acid]",Solubility,"[1]; pH 1 buffer, 24 hours, listed as Example 24, potassium salt Form Q of compound (I)",1560 µg/mL
same,Final pH,"[1]; pH 1 buffer, listed as Example 24, potassium salt Form Q of compound (I)",1.1
same,Final pH,"[1]; pH 3 buffer, listed as Example 24, potassium salt Form Q of compound (I)",3.49
same,Final pH,"[1]; pH 5 buffer, listed as Example 24, potassium salt Form Q of compound (I)",5.17
same,Solubility,"[1]; pH 7 buffer, 24 hours, listed as Example 24, potassium salt Form Q of compound (I)",3580 µg/mL
same,Final pH,"[1]; pH 7 buffer, listed as Example 24, potassium salt Form Q of compound (I)",6.97
same,Solubility,"[1]; pH 9 buffer, 24 hours, listed as Example 24, potassium salt Form Q of compound (I)",>10000 µg/mL
same,Final pH,"[1]; pH 9 buffer, listed as Example 24, potassium salt Form Q of compound (I)",8.71
